Source: patent publication US20260271931A1, “HERBICIDAL MIXTURES” (Bayer Aktiengesellschaft, priority 2023, published 2026)
Like-named read-outs stand apart in the source and are kept apart here.

Assays:
Type in all cases: in vivo
[1] = test system: Echinochloa crus-galli (ECHCG); assay: Post-emergence action against weeds, greenhouse pot test, visual rating: Echinochloa crus-galli
[2] = test system: Kochia scoparia (KCHSC); assay: Post-emergence action against weeds, greenhouse pot test, visual rating: Kochia scoparia; details: Bassia scoparia, post-emergence, 504 h, read-out: Herbicidal effect [%] on KCHSC 21 DAT
[3] = test system: Brachiaria platyfylla (BRAPP); assay: Post-emergence action against weeds, greenhouse pot test, visual rating: Brachiaria platyfylla
Experimental: (§1) When the observed efficacies already exceed the formal sum total of the values of the tests with individual applications, they also exceed the expected value according to Colby, which is calculated using the formula below and is likewise regarded as an indication of synergism (cf. S. R. Colby; in Weeds 15 (1967) pp. 20 to 22):
(§2) where: • A=efficacy of the active ingredient (A) in % at an application rate of a [g a.i./ha]; • B=efficacy of the active ingredient (B) in % at an application rate of b [g a.i./ha]; • E^C=expected value of the effect of the combination (A)+(B) in % at the combined application rate a+b [g a.i./ha].
(§3) The observed values (E^A) from the experiments, given suitable low dosages, show an effect of the combinations exceeding the expected values according to Colby (E^C) (Δ).
(§4) Seeds of mono- and dicotyledonous weeds were placed in sandy loam in pots, covered with soil and grown in a greenhouse under good growth conditions (temperature, air humidity, water supply). Two to three weeks after sowing, the test plants were treated at the two- to four-leaf stage with the compositions of the invention. The compositions of the invention, formulated as spray powders or as emulsion concentrates, were sprayed onto the green parts of the plant in various dosages with an application rate equivalent to […] of water. After the test plants had been kept in the greenhouse under optimum growth conditions for 3 weeks, the activity of the preparations was rated visually in comparison to untreated controls.
(§5) 100% efficacy means complete control of the particular weed tested.
(§6) 0% efficacy means zero control of the particular weed tested.
(§7) Expected values according to Colby are reported under E.
(§8) The exceedance of the expected value E is given as Δ (=synergistic effect).
(§9) The rating period is reported in days after application (DAT).

[4] = test system: Eleusine indica (ELEIN); assay: Post-emergence action against weeds, greenhouse pot test, visual rating: Eleusine indica; details: for pest or weed control at 15 g/ha: 15 g a.i./ha
Experimental: as §1, §2, §3, §4, §5, §6, §7, §8, §9

[5] = test system: Pharbitis purpurea (PHBPU); assay: Post-emergence action against weeds, greenhouse pot test, visual rating: Pharbitis purpurea; details: 21 DAT
Experimental: as §1, §2, §3, §4, §5, §6, §7, §8, §9

[6] = test system: Lolium rigidum (LOLRI); assay: Post-emergence action against weeds, greenhouse pot test, visual rating: Lolium rigidum
[7] = test system: Centaurea cyanus (CENCY); assay: Post-emergence action against weeds, greenhouse pot test, visual rating: Centaurea cyanus
Experimental: as §1, §2, §3, §4, §5, §6, §7, §8, §9

[8] = test system: Avena fatua (AVEFA); assay: Post-emergence action against weeds, greenhouse pot test, visual rating: Avena fatua
[9] = test system: Sorghum halepense (SORHA); assay: Post-emergence action against weeds, greenhouse pot test, visual rating: Sorghum halepense; details: 120 g a.i./ha, 21 DAT
Experimental: as §1, §2, §3, §4, §5, §6, §7, §8, §9

[10] = test system: Bidens pilosa (BIDPI); assay: Post-emergence action against weeds, greenhouse pot test, visual rating: Bidens pilosa; details: 4 g a.i./ha
[11] = Eleusine indica, post-emergence, 240 h, read-out: Herbicidal effect [%] on ELEIN 10 DAT
[12] = Eleusine indica, post-emergence, 504 h, read-out: Herbicidal effect [%] on ELEIN 21 DAT

Compound: O=C(O)CNCP(=O)(O)O [Glyphosate, glyphosate]
- Herbicidal effect [%] on ECHCG 10 DAT ([1]; 30 g a.i./ha): 20%
- pest or weed control at 30 g/ha [2]: 0%

Compound: Cn1nc(C(F)(F)F)c(CS(=O)(=O)C2=NOC(C)(C)C2)c1OC(F)F [Pyroxasulfone, pyroxasulfone]
- pest or weed control at 15 g/ha ([3]; post-emergence, 240 h, 15 g a.i./ha, read-out: Herbicidal effect [%] on BRAPP 10 DAT): 20%
- pest or weed control at 15 g/ha ([2]; 15 g a.i./ha): 0%
- pest or weed control at 15 g/ha [4, 11]: 10%
- pest or weed control at 15 g/ha [4, 12]: 60%

Compound: COc1c(Cl)ccc(-c2nc(C(=O)O)c(Cl)c(N)c2F)c1F [Florpyrauxifen, florpyrauxifen]
- Herbicidal effect [%] on PHBPU 21 DAT ([5]; 1 g a.i./ha): 10%

Compound: C[n+]1ccc(-c2cc[n+](C)cc2)cc1 [Paraquat, paraquat]
- pest or weed control at 40 g/ha ([6]; Lolium rigidum, 504 h, read-out: Herbicidal effect [%] on LOLRI 21 DAT): 10%
- pest or weed control at 40 g/ha [4, 11]: 40%
- pest or weed control at 40 g/ha [4, 12]: 10%

Compound: CP(=O)(O)CCC(N)C(=O)O (centres unmarked) [Glufosinate, glufosinate]
- pest or weed control at 30 g/ha [4, 11]: 10%

Compound: O=C(O)COc1ccc(Cl)cc1Cl [2,4-D]
- Herbicidal effect [%] on CENCY 21 DAT ([7]; 40 g a.i./ha): 75%
- Herbicidal effect [%] on BRAPP 10 DAT ([3]; 40 g a.i./ha): 0%
- Herbicidal effect [%] on BRAPP 21 DAT ([3]; 40 g a.i./ha): 0%
- Herbicidal effect [%] on AVEFA 10 DAT ([8]; 10 DAT, 40 g a.i./ha): 0%
- Herbicidal effect [%] on ELEIN 10 DAT ([4]; 40 g a.i./ha): 10%

Compound: O=C(Nc1ccc(F)cc1F)c1cccnc1Oc1cccc(C(F)(F)F)c1 [Diflufenican, diflufenican]
- Herbicidal effect [%] on SORHA 21 DAT [9]: 0%
- pest or weed control at 120 g/ha ([8]; Avena fatua, 240 h, 10 DAT, 120 g a.i./ha, read-out: Herbicidal effect [%] on AVEFA 10 DAT): 10%
- pest or weed control at 120 g/ha ([4]; Eleusine indica, post-emergence, 504 h, 120 g a.i./ha, read-out: Herbicidal effect [%] on ELEIN 21 DAT): 10%

Compound: CS(=O)(=O)c1cc(C(F)(F)F)ccc1C(=O)c1cnoc1C1CC1 [Isoxaflutole, isoxaflutole]
- Herbicidal effect [%] on ECHCG 10 DAT ([1]; 4 g a.i./ha): 60%
- Herbicidal effect [%] on ECHCG 21 DAT ([1]; 4 g a.i./ha): 40%
- Herbicidal effect [%] on BIDPI 21 DAT [10]: 40%
- Herbicidal effect [%] on PHBPU 21 DAT ([5]; 4 g a.i./ha): 10%
- pest or weed control at 4 g/ha ([8]; Avena fatua, 240 h, 10 DAT, 4 g a.i./ha, read-out: Herbicidal effect [%] on AVEFA 10 DAT): 30%
- pest or weed control at 4 g/ha ([2]; 4 g a.i./ha): 30%

Compound: COC(=O)c1csc(C)c1S(=O)(=O)NC(=O)n1nc(OC)n(C)c1=O [Thiencarbazone-methyl]
- Herbicidal effect [%] on LOLRI 21 DAT ([6]; 0.33 g a.i./ha, 21 DAT): 88%
- Herbicidal effect [%] on PHBPU 21 DAT ([5]; 0.33 g a.i./ha): 40%
- Herbicidal effect [%] on CENCY 21 DAT ([7]; 0.33 g a.i./ha): 40%
- Herbicidal effect [%] on AVEFA 21 DAT ([8]; 21 DAT, 0.33 g a.i./ha): 88%
